Test results published in publication PMC12195660, “Preparation and Evaluation of an Oral Administration System of Albendazole-Metal-Organic Framework Based on Dual Response to pH and Enzymes” (Pharmaceuticals, 2025).

Assay: In vivo pharmacokinetic study after intragastric administration in rats
Conditions: both sexes, Wistar, rat, po, 25 mg·kg^−1 of ABZ
Method: Eighteen Wistar rats were selected and divided into three groups, with half of them being male and the other half being female. Each group was given a dose of 25 mg·kg^−1 of ABZ by intragastric administration. Blood samples of 200–500 μL were collected from each rat at 0.5, 1, 2, 4, 6, 8, 10, 12, and 24 h after administration and were placed into pre-prepared anticoagulant centrifuge tubes. The samples were centrifuged at 13,000 rpm for 10 min, and the upper plasma was collected and stored at −80 °C in an ultra-low temperature refrigerator.
For sample preparation, plasma was thawed, and 50 μL of plasma was mixed with 150 μL of methanol. The mixture was vortexed for 1 min and then centrifuged at 13,000 rpm for 10 min. The supernatant (135 μL) was collected, followed by the addition of 200 ng·mL^−1 mebendazole as the internal standard. The sample was vortexed for 1 min and then filtered through a microporous membrane. The drug content was quantified using UHPLC-MS/MS (UltiMate 3000 and Q-Exactive Orbitrap MS, Thermo Scientific, USA). Pharmacokinetic parameters were calculated using DAS 2.0 software.
Chromatographic conditions: An Accucore aQ UHPLC column (150 mm × 2.1 mm × 2.5 μm) was used. The column temperature was maintained at 40 ± 1 °C, and the sample tray was kept at 15 ± 0.5 °C. The mobile phase consisted of acetonitrile (A) and water with 0.1% formic acid (B). The elution gradient was as follows: 0–5 min, 95% B. The injection volume was 1 μL, and the flow rate was set to 0.3 mL·min^−1.
Mass spectrometry conditions: Electrospray ionization (ESI) was used with high-purity nitrogen (purity > 99.9%) as the carrier gas. The sheath gas flow rate was 35 Arb, and the auxiliary gas flow rate was 10 Arb. The capillary temperature was set to 320 °C, with the ion lens (S-lens RF level) voltage frequency at 60. The spray voltage was 3.0 kV (positive mode), and full MS positive switching scanning mode was employed, with a scanning range of 150–800.

CCCSc1ccc2nc(NC(=O)OC)[nH]c2c1 [ABZ, albendazole]
half-life (in vivo, n = 6): 2 ± 0.38 h | AUC(0-inf) (plasma, n = 6): 220 ± 25.3 ng·h/mL | AUC(0-t) (plasma, n = 6): 216 ± 27.6 ng·h/mL | Cmax (plasma, n = 6): 34.1 ± 5.19 ng/mL | Tmax (plasma, n = 6): 2 ± 0.38 h | MRT last (plasma, n = 6, read-out: MRT0–t): 6.16 ± 0.36 h | MRT inf (plasma, n = 6, read-out: MRT0–∞): 6.55 ± 0.37 h
